Values quoted from earlier work, collected in US20170280761A1, “METHOD TO CONCENTRATE APOA-1 MIMETIC PEPTIDES TRANSGENICALLY EXPRESSED IN PLANTS” (The Regents of the University of California, priority 2014, published 2017).
One block for each sequence: values may come before it.

Columns and labels:
ovarian cancer = settings: for levels of lysophosphatidic acid (LPA) / tumor growth: administered either orally or by injection
C57BL/6J-Apc Min/+ mice = settings: 4F in mouse chow
[1] = biological target: T1, scavenger receptor A (SR-A) (Homo sapiens, UniProt P21757)
T1 sequence (P21757 1-451): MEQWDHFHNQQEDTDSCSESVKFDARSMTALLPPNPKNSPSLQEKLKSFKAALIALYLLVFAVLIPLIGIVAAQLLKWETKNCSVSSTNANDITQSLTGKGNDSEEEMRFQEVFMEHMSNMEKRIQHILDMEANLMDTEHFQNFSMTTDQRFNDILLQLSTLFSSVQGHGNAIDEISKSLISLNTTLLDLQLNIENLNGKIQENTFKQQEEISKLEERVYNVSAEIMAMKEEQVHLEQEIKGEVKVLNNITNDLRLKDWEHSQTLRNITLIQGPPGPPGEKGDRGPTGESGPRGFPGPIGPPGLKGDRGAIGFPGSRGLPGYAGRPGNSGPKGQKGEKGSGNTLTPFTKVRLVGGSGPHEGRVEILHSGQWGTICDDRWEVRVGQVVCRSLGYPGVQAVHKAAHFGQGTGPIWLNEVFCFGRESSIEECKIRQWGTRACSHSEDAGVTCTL

colon cancer = settings: 4F added to mouse chow
[2] = tested on: epithelial ovarian cancer cells
tumor invasiveness = settings: administration of the 4F peptide
[3] = tested on: Hypoxia-inducible factor-1 (HIF-1); settings: addition of the 4F peptide
[4] = mouse, in vivo

Sequence: DWLKAFYDKVFEKFKEFF (Synthetic recombinantly expressed peptide) [5F]
levels of lysophosphatidic acid (LPA) (ovarian cancer): decreased
tumor growth (ovarian cancer): decreased

inhibition of SR-A [1]: potent inhibitor
Sequence: DWFKAFYDKVAEKFKEAF (Synthetic recombinantly expressed peptide) [4F]
levels of lysophosphatidic acid (LPA) (ovarian cancer): decreased
tumor growth (ovarian cancer): decreased
expression of HIF-1 alpha in mouse ovarian tumor tissues (ovarian cancer; administration of the 4F peptide): markedly decreased
LPA levels (C57BL/6J-Apc Min/+ mice): decreased
number and size of tumors in the intestinal tract (C57BL/6J-Apc Min/+ mice): reduced
plasma LPA levels (colon cancer): decreased
tumor angiogenesis (colon cancer): decreased
tumor burden (colon cancer): decreased
antioxidant enzyme manganese superoxide dismutase (MnSOD) [2]: upregulated
proliferation and ability to form tumors [2]: inhibited
tumor invasiveness (tumor invasiveness): inhibited
HIF-1 alpha induced in vitro by LPA [3]: decreased

Sequence: DWLKAFYDKFFEKFKEFF (Synthetic recombinantly expressed peptide) [6F]
amount of intact 6F peptide found in the small intestine [4]: 15.6±7.4 µg 6F per 200 mg small intestine
intact 6F peptide in the plasma [4]: not in the plasma
intact 6F peptide in the small intestine [4]: found
